Data: article PMC8533149 (Biomolecules, 2021)
Read-outs that look alike come from different tables or passages of the source.

Assays:
[1] = test system: HIV-1 LTR-III G-quadruplex (FAM/TAMRA-labeled LTR-III); assay: FRET melting assay, LTR-III G4; type: binding; details: for LTR-III (average): Table S12, average stabilization; for LTR III stabilization: Figure 7, stabilization group; for LTR-III ΔTm: Table S1 primary screening, ligand:ODN 50:1, singlicate
Procedure, shortened: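 Melting is followed by FAM fluorescence (ex 495/em 520 nm) while heating at 1 °C/min from 30 to 95 °C. Labelled ODN at 0.5 μM, pre-annealed in 10 mM Li cacodylate, 100 mM KCl, pH 7.4, mixed with ligand at 50:1 (25 μM), or 20:1 and 2:1 for titration. ΔTm is relative to the 0.25% DMSO buffer control.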

[2] = Cytotoxicity test; type: cell-based; details: human, Figure 7
Method: (§1) Green monkey kidney (Vero, Beach, FL, USA) cell line was maintained in 2 × Eagle MEM (“Chumakov FSC R&D IBP RAS”, Russia) with 5% FBS with L-glutamine, penicillin and streptomycin. […] HIV-1 strain NL4-3 was obtained via cell transfection with pNL4-3 3 (ARP2006, NIBSC, Potters Bar, UK).
(§2) MT4 cell suspensions were added to the wells with compound dilutions and DMSO control (approx. 2 × 10^4 cells per well). […] All experimental procedures were performed in two replicates and were repeated two to four times. Mean and SD were calculated with OriginPro 8 (OriginLab, St. Louis, MO, USA).

[3] = test system: MT4 cells; assay: Cytotoxicity test; type: cell-based; details: for СС50 (MT4): Table S12, nine days; for CC50: Figure 7
Method: as §1, §2

[4] = test system: HIV-1 strain NL4-3 in MT4 cells; assay: Cytopathic effect inhibition test; type: cell-based; details: HIV-1 NL4-3, MT4 cells
Method: Human T cell leukemia (MT4) cell line was maintained in RPMI-1640 (“Chumakov FSC R&D IBP RAS”, Moscow, Russia) with 10% of fetal bovine serum (FBS, Invitrogen, Waltham, MA, USA), L-glutamine and gentamicin. Green monkey kidney (Vero, Beach, FL, USA) cell line was maintained in 2 × Eagle MEM (“Chumakov FSC R&D IBP RAS”, Russia) with 5% FBS with L-glutamine, penicillin and streptomycin. Cell cultures were incubated in the present of 5% CO2 at 37 °C. HIV-1 strain NL4-3 was obtained via cell transfection with pNL4-3 3 (ARP2006, NIBSC, Potters Bar, UK).
Eight two-fold dilutions of stock solutions of the compounds in two replicates were prepared in RPMI-1640 (“Chumakov FSC R&D IBP RAS”, Russia). Compound dilutions were mixed with equal volumes of the virus suspension containing 100 CCID50 (50% tissue culture infectious dose). Control cells were treated with the same sequential concentrations of DMSO as in compound dilutions. Then, the MT4 cell suspension (approx. 2 × 10^4 cells per well) in RPMI-1640 containing 10% FBS (Invitrogen, South America) was added to experimental mixtures. A final concentration series started from 25 μM. Each experiment contained virus dose titration in the inoculate to assure the acceptable dose-range. After a nine-day incubation (5% CO2, at 37 °C), cytopathic effect (CPE) was visually accessed via microscope. EC50 values were calculated according to the Karber method. All experimental procedures were performed in two replicates and were repeated two to four times. Mean and SD were calculated with OriginPro 8 (OriginLab, St. Louis, MO, USA).

[5] = Table S12, CPE, nine-day incubation, read-out: EC50
[6] = Figure 7, read-out: Antiviral activity EC50 (HIV)

SMILES | LTR-III ΔTm [1] | also measured
COc1cc(/C=C2N=C(/C=C/c3cc(Br)c(O)c(Br)c3)N(CCN)C\2=O)cc(OC)c1O.Cl [AR559] | – | LTR-III (average) [1]: 1,2 °C; CC50 at 9 days ([2]; MT4 cells): > 25 µM; СС50 (MT4) [3]: > 25 µM
Cc1cn([C@H]2C[C@H](N=[N+]=[N-])[C@@H](CO)O2)c(=O)[nH]c1=O [AZT, reference compound] | – | СС50 (MT4) [3]: 8.0 ± 1.5 µM; EC50 [4, 5]: 0.0071 ± 0.00043 µM
COc1ccc(C=C2N=C(CC(C)C)C(=O)N(OC)C2=O)cc1 [M 802] | -2.3 °C | LTR III stabilization [1]: < 1 °C; LTR-III (average) [1]: -2,3 °C; CC50 [3]: 7 ± 3 µM; СС50 (MT4) [3]: 6.6 ± 3.1 µM
O=C1/C(=C/c2cccs2)N=C(/C=C/c2ccc(O)cc2)N1CCc1ccc(O)cc1 [MID 161] | -2.6 °C | LTR III stabilization [1]: < 1 °C; LTR-III (average) [1]: -1,7 °C; CC50 at 9 days ([2]; MT4 cells (human T cell leukemia)): 17 ± 5 µM; СС50 (MT4) [3]: 17.3 ± 5.7 µM; EC50 ([4]; Human immunodeficiency virus 1, NL43, 216 h, Table S12, CPE, nine-day incubation, read-out: EC50): 7.7 ± 2.2 µM; EC50 ([4]; Human immunodeficiency virus 1, NL43, Figure 7, read-out: Antiviral activity EC50 (HIV)): 8 ± 2 µM
COc1ccc(OC)c(C=C2N=C(C)N(C)C2=O)c1 [N 840] | -2.5 °C | LTR III stabilization [1]: < 1 °C; LTR-III (average) [1]: -1,55 °C; CC50 [3]: > 25 µM; СС50 (MT4) [3]: > 25 µM
COc1cc(C=CC2=NC(=Cc3ccc(O)cc3)C(=O)N2C)cc(OC)c1O [N 906] | 0.1 °C | LTR III stabilization [1]: < 1 °C; LTR-III (average) [1]: 0,1 °C; CC50 [3]: 7 ± 3 µM; СС50 (MT4) [3]: 6.6 ± 3.1 µM
COc1cc(O)ccc1C=C1N=C(C=Cc2c(F)c(F)c(F)c(F)c2F)N(C)C1=O [N 1049] | 1.8 °C | LTR-III (average) [1]: 1,8 °C; CC50 [3]: 5 ± 3 µM; СС50 (MT4) [3]: 5.2 ± 2.5 µM; EC50 [4, 6]: 2 ± 1 µM; EC50 [4, 5]: 2.1 ± 1.4 µM
COc1c(O)ccc(C=C2N=C(C=Cc3ccncc3)N(C)C2=O)c1O [N 1069] | 2.7 °C | LTR-III (average) [1]: 2,7 °C; CC50 [3]: 6 ± 2 µM; СС50 (MT4) [3]: 6.0 ± 2.0 µM; EC50 [4, 6]: 4 ± 2 µM; EC50 [4, 5]: 4.23 ± 1.75 µM
COc1cc(O)ccc1/C=C1N=C(/C=C/N(C)C)N(C)C\1=O [N 1122] | 2.3 °C | LTR-III (average) [1]: 2,3 °C; CC50 [3]: > 25 µM; СС50 (MT4) [3]: > 25 µM
COc1ccc(C=C2N=C(C)N(CC(N)=O)C2=O)cc1 [SA 120] | -2.1 °C | LTR III stabilization [1]: < 1 °C; LTR-III (average) [1]: -1,35 °C; CC50 [3]: > 25 µM; СС50 (MT4) [3]: > 25 µM
O=C(O)c1ccc(-c2ccccc2)cc1 [X 26] | -0.1 °C | –
CNC(=O)C(N)C(O)c1ccc(OCc2ccccc2)cc1 (stereo not shown) [X 27] | -0.1 °C | –
CC(=O)NC(=Cc1ccc([N+](=O)[O-])cc1)C(=O)NC1CCCCC1 [X 28] | -0.3 °C | –
CNC(=O)C(=Cc1ccc(O)c(CO)c1)NC(=O)c1ccccc1 [X 29] | -0.6 °C | –
CC1=NC(=Cc2ccccc2)C(=O)N1Cc1ccccc1 [ZS142] | -1.4 °C | –
COc1ccc(N)cc1C=C1N=C(C)N(C)C1=O [ZS 62] | 0 °C | –
CC1=NC(=Cc2ccncc2)C(=O)N1CC(=O)O [ZS 69] | -0.4 °C | –
COc1ccc(C(N)=C2N=C(C)N(C)C2=O)cc1 [ZS 99] | -0.2 °C | –
CC1=NC(=C(N)c2ccccc2)C(=O)N1C [ZS 109] | -0.7 °C | –
COc1ccc(C=C2N=C(C)N(Cc3ccccc3)C2=O)cc1 [ZS 128] | -0.3 °C | –
COc1ccc(C=C2N=C(C)N(C3CCCCC3)C2=O)cc1 [ZS 129] | -0.2 °C | –
CC1=NC(=Cc2ccc([N+](=O)[O-])cc2)C(=O)N1Cc1ccccc1 [ZS 143] | -0.9 °C | –
CC1=NC(=Cc2ccc([N+](=O)[O-])cc2)C(=O)N1C1CCCCC1 [ZS 146] | 0.2 °C | –
NC(=C1N=C2C=CC=CN2C1=O)c1ccccc1 [ZS 167] | -0.1 °C | –
CC1=NC(=Cc2ccc(O)cc2Br)C(=O)N1C [ZS 174] | -0.3 °C | –

SMILES | LTR-III ΔTm [1] | also measured
CC1=NC(=C(N)c2ccc(Cl)cc2)C(=O)N1C [ZS 178] | -0.3 °C | –
CN(C)C=CC1=NC(=C(N)c2ccccc2)C(=O)N1C [ZS 182] | 0 °C | –
CC1=NC(=C(N)c2ccc(Br)cc2)C(=O)N1C [ZS 190] | -0.5 °C | –
COC(=O)c1ccc(C(N)=C2N=C(C)N(C)C2=O)cc1 [ZS 199] | -0.4 °C | –
NC(=C1N=C2C=CC=CN2C1=O)c1ccc(Cl)cc1 [ZS 228] | 0.3 °C | –
CN1C(=O)C(=Cc2ccc(O)cc2)N=C1C=Cc1ccccc1 [ccA 1] | 0.6 °C | –
CN1C(=O)/C(=C/c2ccc(O)cc2)N=C1/C=C/c1ccc(O)cc1 [ccA 2] | 0.4 °C | –
CN1C(=O)C(=Cc2ccc(O)cc2)N=C1C=CC=Cc1ccccc1 [ccA 4] | 0.8 °C | –
CN1C(=O)C(=Cc2ccc(O)cc2)N=C1C=Cc1ccc(Br)cc1 [ccA 7] | 0.8 °C | –
CC=CC=CC1=NC(=Cc2ccc(O)cc2)C(=O)N1C [ccA 8] | 0.2 °C | –
CN1C(=O)C(=Cc2ccc(O)cc2)N=C1C=Cc1ccncc1 [ccA 9] | 0.3 °C | –
CN1C(=O)C(=Cc2ccc(O)cc2)N=C1C=Cc1ccc(O)c(Br)c1 [ccA 10] | 0.7 °C | –
CN1C(=O)C(=Cc2ccc(O)cc2)N=C1C=Cc1ccc(O)c([N+](=O)[O-])c1 [ccA 11] | 0.1 °C | –
CN1C(=O)C(=Cc2ccc(O)cc2)N=C1C=Cc1cc(Br)c(O)c(Br)c1 [ccA 12] | 0.2 °C | –
CN1C(=O)C(=Cc2ccc(O)cc2)N=C1C=Cc1ccccc1O [ccA 15] | 0.5 °C | –
CN1C(=O)C(=Cc2ccc(O)cc2)N=C1C=Cc1ccc(C(=O)O)cc1 [ccA 16] | 0.8 °C | –
CN1C(=O)C(=Cc2ccc(O)cc2)N=C1C=Cc1ccccc1F [ccA 18] | 0.1 °C | –
CN1C(=O)C(=Cc2ccc(O)cc2)N=C1C=Cc1cccs1 [ccA 19] | -0.1 °C | –
COc1ccccc1C=CC1=NC(=Cc2ccc(O)cc2)C(=O)N1C [ccA 20] | 0.4 °C | –
CN1C(=O)C(=Cc2ccc(O)cc2)N=C1C=Cc1ccc(N(C)C)cc1 [ccA 22] | 0.3 °C | –
CNC(=O)c1cc(/C=C2N=C(/C=C/c3cccs3)N(C)C\2=O)ccc1O [ccD 1] | 0.7 °C | –
CNC(=O)c1cc(C=C2N=C(C=Cc3cc(Br)c(O)c(Br)c3)N(C)C2=O)ccc1O [ccD 2] | 0.2 °C | –
CC(=O)NCCN1C(=O)C(=Cc2ccc(O)cc2)N=C1C=Cc1ccc(O)cc1 [ccE 2] | -0.1 °C | –
COc1ccc(/C=C/C2=NC(=C\c3ccc(O)cc3)/C(=O)N2CCNC(C)=O)cc1 [ccE 4] | 2.8 °C | LTR-III (average) [1]: 2,8 °C; CC50 [3]: > 25 µM; СС50 (MT4) [3]: > 25 µM
COc1ccccc1C=CC1=NC(=Cc2ccc(O)cc2)C(=O)N1CCNC(C)=O [ccE 7] | 0.3 °C | –
